Patent publication US20110306801A1, “EXTRACTION AND SEPARATION PROCESSES FOR RECOVERY OF ORGANIC SOLUTES FROM FEED SOURCES AND APPARATUSES FOR PERFORMING SAME” (Trans Ionics Corporation, priority 2009, published 2011)
Like-named read-outs stand apart in the source and are kept apart here.

Legend:
[1] = Extraction of ethanol from water with cetyl alcohol, equilibrium data and distribution coefficient; assay type: physicochemical; conditions: aqueous ethanol feed, 75° C.
Experimental: (§1) DC=(Wo/Ws)ext/(Wo/Ww)raff (1)
(§2) The slope of this line is the distribution coefficient.
Cetyl Alcohol as an Extraction Solvent For Ethanol. Cetyl alcohol was used as a solvent for ethanol extraction. Because cetyl alcohol melts between 47° C. and 50° C. and therefore is a solid at both room temperature (25° C.) and typical fermentation temperatures (40° C.), it has been overlooked as an extraction solvent. Cetyl alcohol was tested at 75° C. at a solvent:feed ratio of 5:1.

[2] = ethanol, ABE feed, cetyl alcohol/mixed xylenes 50/50 wt %
[3] = approximately 6.0 grams 100-120 mesh 5 Å sieves, 10.1 mm ID column, 20.0 ml feed with 7.47 wt % ethanol in xylenes
Experimental: Commercially available Linde 5 Å molecular sieves containing binder were ground and sieved to 100-120 mesh using standard screens. After activation at 400° C., the sieves were cooled to 150° C. and poured directly into mixed xylenes.
The stopcock was opened and samples of liquid were taken every 10 minutes for analysis by gas chromatography. Data were normalized to produce a dimensionless concentration by dividing each of the outlet ethanol concentrations by that of the feed stream.

[4] = cetyl alcohol/oleic acid 50/50 wt %, 5:1, 75° C.
Experimental: One measure of the effectiveness of a solvent for extracting solutes is termed the distribution coefficient, which is calculated as follows in Formula (1):
as §1, §2
Mixtures of Cetyl Alcohol and Other Solvents For Extraction of Ethanol. Mixtures of cetyl alcohol with other solvents were used in order to produce a resulting extraction solvent having a lower melting point than pure cetyl alcohol. […] This solvent mixture was tested for ethanol extraction at a solvent:feed ratio of 5:1 at 75° C.

[5] = Batch separation of ethanol from xylenes using 5 Å zeolite molecular sieves; assay type: physicochemical; conditions: 10.0 grams feed (8.00 wt % ethanol, 0.07 wt % water, balance mixed xylenes) with 5.0 gm zeolite, 40° C.

## CCCCCCCCCCCCCCCCO [Cetyl alcohol]
[1]
  emulsion formation as extraction solvent: no indication of the formation of emulsions

## CCO [ethanol]
[2]; 5:1, 40° C., feed Wo/Ww 0.002
  Extract (Wo/Ws): 0.00002 Wo/Ws
  Raffinate (Wo/Ww): 0.00009 Wo/Ww
[2]; 5:1, 40° C., feed Wo/Ww 0.03
  Extract (Wo/Ws): 0.0005 Wo/Ws
  Raffinate (Wo/Ww): 0.0025 Wo/Ww
[2]; 5:1, 40° C., feed Wo/Ww 0.06
  Extract (Wo/Ws): 0.0010 Wo/Ws
  Raffinate (Wo/Ww): 0.0052 Wo/Ww
[2]; 5:1, 40° C., feed Wo/Ww 0.12
  Extract (Wo/Ws): 0.0021 Wo/Ws
  Raffinate (Wo/Ww): 0.0102 Wo/Ww
[2]; 5:1, 40° C., feed Wo/Ww 0.15
  Raffinate (Wo/Ww): 0.0126 Wo/Ww
[2]; 5:1, 40° C., feed Wo/Ww 0.19
  Extract (Wo/Ws): 0.0032 Wo/Ws
  Raffinate (Wo/Ww): 0.0152 Wo/Ww
[2]; 5:1, 75° C., feed Wo/Ww 0.002
  Extract (Wo/Ws): 0.00003 Wo/Ws
  Raffinate (Wo/Ww): 0.00007 Wo/Ww
[2]; 5:1, 75° C., feed Wo/Ww 0.03
  Extract (Wo/Ws): 0.0009 Wo/Ws
  Raffinate (Wo/Ww): 0.0021 Wo/Ww
[2]; 5:1, 75° C., feed Wo/Ww 0.06
  Extract (Wo/Ws): 0.0012 Wo/Ws
  Raffinate (Wo/Ww): 0.0043 Wo/Ww
[2]; 5:1, 75° C., feed Wo/Ww 0.12
  Extract (Wo/Ws): 0.0025 Wo/Ws
  Raffinate (Wo/Ww): 0.0084 Wo/Ww
[2]; 5:1, 75° C., feed Wo/Ww 0.15
  Extract (Wo/Ws): 0.0031 Wo/Ws
  Raffinate (Wo/Ww): 0.0105 Wo/Ww
[2]; 5:1, 75° C., feed Wo/Ww 0.19
  Raffinate (Wo/Ww): 0.0125 Wo/Ww
[3]
  volume of effluent exited the column before ethanol appeared in the product: 20 mL
[4]; feed Wo/Ww 0.2000
  Extract (Wo/Ws): 0.0316 Wo/Ws
[4]; feed Wo/Ww 0.5000
  Extract (Wo/Ws): 0.0848 Wo/Ws
[5]
  ethanol content leveled out after contact with 5 Å zeolite pellets: 1.07 wt %
